Laboratory results: patent US20020032581A1, “Single-patient drug trials used with accumulated database: risk of habituation” (priority 2000, published 2002)
Counter-ions that a name gives are not always drawn.

Key:
hypertensive person = test: double-blind single-patient trial of sustained release verapamil vs sustained release propranolol; assay type: in vivo, human; settings: for mean systolic blood pressure increases: verapamil 240 mg once daily vs propranolol 180 mg once daily; for mean systolic blood pressure increases / mean diastolic pressure: little difference between drugs; for mean diastolic pressure: throughout the six week trial
Description: In this example, the validity of using a sustained release formulation of verapamil 240 mg once daily as a therapeutic alternative to sustained release propranolol 180 mg once daily in a hypertensive person is shown. The trial during which the two medications are randomly administered in a double-blind manner is six weeks. The questionnaire used is set up in a manner similar to that described in above examples except that the questions elicit information related to the disease of hypertension. Blood pressure and adverse event reports are taken daily by the patient. […] Sleepiness is reported at equal rates for both drugs. All values are statistically insignificant and the therapeutic alternative selection is objectively validated.

[1] = test system: previously tested patients; test: follow-up of previously tested similar patients for addiction / smoking; settings: for level of addiction on follow-up of similar patients: human, in vivo
individual patient = test: SPAS single-patient abuse potential test (liking score); settings: for difference of liking score vs placebo: drug minus placebo; for liking score: on drug, codeine: person, diazepam: person, nicotine: person, on average
Description: Single-patient drug kits can be designed to test for “liking scores,” “abuse potential scores,” and patient's desire to re-use the test article compared to placebo and positive controls.
In this example, the abuse potential of the narcotic analgesic codeine is tested. A single-patient trial is conducted in a patient for whom treatment with codeine is deemed appropriate. The patient receives a SPAS test kit containing codeine, an alternative drug, e.g., ibuprofen and a questionnaire designed to elicit the liking score, desirability to re-use test article and abuse potential of the patient to codeine.
In another example, in follow-up to the test above, the clinician compares diazepam to secobarbital in the same patient.

[2] = test system: patients with allergic rhinitis; test: database follow-up of similar patients placed on CM; assay type: in vivo, human; settings: year long follow-up
Description: It is determined that they are a candidate for the individual patient formulary management control system. They are considered a candidate because there are similar patients, e.g. 50, in the database, and 40 of them are placed on CM rather than CL based upon the outcome of single-patient drug trials. […] If CL is found to be more acceptable considering the safety, effectiveness and desirability data of the individual patient questionnaire, the co-pay is the same low rate as for CM.

[3] = test system: patient with perennial allergic rhinitis; settings: for incidence of sedation: day 4 of treatment
[4] = test system: patients with the same disorder (hyperactive child); test: pooled SPAS database and follow-up of patients continued on methylphenidate 40 mg daily; assay type: in vivo, human
Description: All results obtained from the data are compared against the results provided by data amassed from a pool of about 200 patients with the same disorder. If, of these 200 patients, 55 experience encouraging results (along with the current patient) they are continued on 40 mg daily treatment. If, of these 55 patients, 5 are lost to follow-up, with 50 remaining for prospective evaluation, the physician continues the patient on 40 mg methylphenidate daily based solely on the isolated SPAS single-patient drug trial results. The physician then reviews the pooled data on the 50 patients. This will be done to understand under what circumstances this individual patient is likely to continue to show benefit from methylphenidate 40 mg treatment, and what conditions lead to treatment failure.
If for example, the pool of 50 patients who continue treatment have the following scores following the original SPAS testing:
All 50 patients are followed up by telephone interview monthly for nine months or more, and outcomes are prospectively documented.

hyperactive child = test: single-patient drug trial of methylphenidate vs placebo (SPAS kit, parent/school questionnaires); assay type: in vivo, human
Description: The usefulness of methylphenidate (Ritalin) treatment in a hyperactive child (Minimum Brain Dysfunction or Attention Deficit Disorder) is evaluated.
Consists of instructions, “calendar” packaging for drug and a substantially identical looking placebo to assure appropriate dosing and monitoring of compliance, questionnaires and assessment forms and instructions. Completed forms are sent to a neutral observer who has previously assigned the randomized, multiple-crossover schedule of drug and placebo periods. Only the observer has access to when active drug and placebo are taken and only the observer analyzes the data (exception: open-label or single-blind trials). Results are mailed to the physician and, in this case, parent for use in evaluating the usefulness of the therapy. The physician and parent are contacted, e.g., every three months to provide data on therapies utilized, and perceived outcome, until the condition is resolved. The data is also added to a post-marketing surveillance database for use in evaluating future individual study results, and for access by drug companies, regulatory agencies, and health care organizations.
The questionnaire portion of the kit includes an initial consent form for the parent or guardian to complete. The questionnaire also provides background information on the study and possible side effects associated with the medication. Also included therein is a form for providing relevant patient and family histories. More importantly, the questionnaire, in this case includes a portion for the weekly input by parents/guardians and school observers for answers to questions relating to the drug evaluation. Physician questionnaires are similarly arranged.
The kit described in Example 1 is used to again evaluate the usefulness of methylphenidate (Ritalin) treatment in a hyperactive child except that all interested parties have the benefit of a set of data generated from a pool of patients having a similar need for treatment. […]

[5] = pool of 50 patients who continue treatment

COc1ccc(CCN(C)CCCC(C#N)(c2ccc(OC)c(OC)c2)C(C)C)cc1OC (stereo not shown) [verapamil] was tested, and the sleepiness reported (hypertensive person; six week trial, both drugs) was “equal rates”, the “mean systolic blood pressure increases” value (hypertensive person; six week trial) was 3% and the mean diastolic pressure (hypertensive person) was “essentially stable”.
CC(C)NCC(O)COc1cccc2ccccc12 (stereo not shown) [propranolol] was tested, and the sleepiness reported (hypertensive person; human, in vivo) was “equal rates”, the “mean systolic blood pressure increases” value (hypertensive person; six week trial) was 3% and the mean diastolic pressure (hypertensive person) was “essentially stable”.
For COc1ccc2c3c1O[C@H]1[C@@H](O)C=C[C@H]4[C@@H](C2)N(C)CC[C@@]341 [codeine], the became addicted ([1]; Caucasian female patients 30 to 40 years with 0 unit difference) was 10 out of 1250, the became addicted ([1]; black male patients 40 to 50 years old with 2-unit difference, treated with codeine) was 25 out of 600 and the became addicted ([1]; similar patients with 3 unit differences) was 50 out of 110. For the same molecule, the “difference of liking score vs placebo” value (individual patient) was 2 units and the liking score (individual patient) was 3 out of 5.
CN(C)CCC(c1ccc(Cl)cc1)c1ccccn1 (stereo not shown) [CM, chlorpheniramine maleate] was tested, and the patients well maintained [2] was 37 of the 40, the “patient's symptoms on reevaluation” value ([3]; 6 and 12 months post-initiation of CM treatment) was “well maintained” and the incidence of sedation [3] was 2 on a 3 point scale. For the same molecule, the “most bothersome symptom, sneezing” value ([3]; person, dust mite protein allergy) was “similarly and effectively controlled”.
COC(=O)C(c1ccccc1)C1CCCCN1 (stereo not shown) [methylphenidate] was tested, and the “show severe episodes of bizarre behaviors” value ([4]; patients with statistically altered sleep patterns on SPAS testing, within two months) was 90%, the “patients experience grand mal seizures” value ([4]; patients with statistically altered sleep patterns, within two months) was “two” and the “Sleep Patterns: have been statistically altered” value [4, 5] was 50%. For the same molecule, the “Sleep Patterns: have not been statistically altered” value [4, 5] was 50%, the “Teacher Comments: corroborate improved attention span” value [4, 5] was 80% and the “Teacher Comments: do not corroborate improved attention span” value [4, 5] was 20%. The “Attention Span: have substantial improvement” value ([4]; pool of 50 patients who continue treatment, 40 mg daily) was 100%, the “patient's attention span” value (hyperactive child; 40 mg daily as 10 mg four times daily, periods when methylphenidate is given vs placebo) was “improved substantially” and the teacher comments (hyperactive child; during methylphenidate dosing periods) was “corroborate improved attention span”. For the same molecule, the sleep patterns (hyperactive child; during methylphenidate periods, 40 mg daily) was “statistically altered”.
In the case of CN1C(=O)CN=C(c2ccccc2)c2cc(Cl)ccc21 [diazepam], the “level of addiction on follow-up of similar patients” value [1] is reported as “comparatively low level of addiction”, the “difference of liking score vs placebo” value (individual patient) is reported as 0 units and the liking score (individual patient) is reported as 4 out of 5.
With C=CCC1(C(C)CCC)C(=O)NC(=O)NC1=O (stereo not shown) [secobarbital] the “level of addiction on follow-up of similar patients” value [1] was “high level of addiction” and the “difference in liking scores, diazepam compared to secobarbital” value (individual patient; same patient) was “greater addiction potential”.
CN1CCCC1c1cccnc1 (stereo not shown) [nicotine] was tested, and the are smokers ([1]; female Caucasian patients 15 to 17 years old with similar 3-unit difference) was 820 out of 975, the “difference of liking score vs placebo” value (individual patient) was 3 units and the liking score (individual patient) was 4 out of 5.
CCOC(=O)N1CCC(=C2c3ccc(Cl)cc3CCc3cccnc32)CC1 [CL, loratidine] was tested, and the incidence of sedation [3] was 2 on a 3 point scale.
